What was measured:
[1] = test system: human prostate cancer cell line LnCAP; assay: Cell survival assay (crystal violet); format: cell-based; details: FN1-8 at 50 μM, FN1-5 30 and 50 μM
Experimental: (§1) Typically, the small molecule compounds of the present invention were dissolved in DMSO at a concentration of 30 mM. The small molecule compounds were then tested under cell culture conditions at different concentrations ranging from 0, 10, 30, 50, to 100 uM. To determine cell survival after treatment, the cells were incubated with the small molecule compounds in 6-well plates for about 3 days. After removal of the cell culture medium, 1-ml of 0.5% crystal violet solution (prepared in 20% ethanol and 20% methanol) was added to stain the cells for 5 min. Then the crystal violet solution was rinsed clean with tap water. Cell survival was estimated based on the density of crystal stained plates.
The cell-based cytotoxicity assay described herein was used to determine the effect of small molecule compounds FN1-5 and FN1-8 on the human prostate cancer cell line LnCAP. Viability of LnCAP cells was analyzed after treatment with 30 and 50 μM FN1-5 and after treatment with 10, 30, and 50 μM FN1-8.

[2] = test system: human pancreatic cancer cell lines L3.6sl, Panc4.21, BxPC3, and CFPAC-1; assay: Cell survival assay (crystal violet); format: cell-based; details: for cell killing: 50 μM, all pancreatic lines analyzed
Experimental: as §1
The cell-based cytotoxicity assay described herein was used to determine the effect of small molecule compounds FN1-5 and FN1-8 on the human pancreatic cancer cell lines L3.6sl, Panc4.21, BxPC3, and CFPAC-1. Viability of these cells was analyzed after treatment with 10, 30 and 50 μM FN1-5 or FN1-8. […] However, cell killing mediated by FN1-5 in Panc4.21 was less when compared to its effect on the three other pancreatic cancer cell lines.

[3] = test system: human sarcoma cell lines MG63 and MNNG; assay: Cell survival assay (crystal violet); format: cell-based; details: FN1-8 at 50 μM; 10, 30 and 50 μM tested
Experimental: as §1
The cell-based cytotoxicity assay described herein was used to determine the effect of small molecule compounds FN1-5 and FN1-8 in the human sarcoma cell lines MG63 and MNNG. Viability of these cells was analyzed after treatment with 10, 30 and 50 μM FN1-5 or FN1-8.

normal human renal cells = assay: Cell survival assay (crystal violet); format: cell-based; details: FN1-5 30 and 50 μM; FN1-8 10, 30, and 50 μM; 3 days
Experimental: as §1
The cell killing effect of small molecule compounds FN1-5, and FN1-8 at different doses was examined in normal human renal cells. Normal renal cells were plated in 6-well plates and incubated with 30 and 50 μM of compound FN1-5 and 10, 30, and 50 μM FN1-8 for 3 days, in the same manner as described herein for similar other experiments.

[4] = test system: SW480 cells transfected with empty pCDNA3 vector or Gli2 cDNA expression construct; assay: GLI2 over-expression rescue experiment; format: cell-based, human; details: 5 days
Experimental: For transient transfection experiments, cells (2×10^5) were plated in six-well plates using growth medium without antibiotics 24 hrs before transfection. Lipofectamine™ 2000 (Invitrogen Life Technologies; Carlsbad, Calif.) was used to mediate transfection using 2.0 μg of cDNA in pCDNA3 vector or 2.0 μg empty pCDNA3 vector as control, according to the manufacturer's protocol. Then the transfected cells were cultured at 37° C. in a humid incubator with 5% CO2 until they were ready for analysis. Gli2 cDNA was kindly provided by Dr. Fritz Aberger at University of Salzburg (Salzburg, Austria). Gli1 and Gli3 cDNA were kindly provided by Dr. Bert Vogelstein and Dr. Kenneth W. Kinzler at the Sidney Kimmel Comprehensive Cancer Center of the Johns Hopkins University (Baltimore, Md.). TAFIII31 cDNA was kindly provided by Dr. Gregory L. Verdine at Harvard University (Cambridge, Mass.).
As described herein, GLI3 seems to activate transcription of Gli1 and Gli2 genes. […] If so, then transfecting a GLI1 and/or GLI2 expression construct into a cell treated with a small molecule compound of the present invention, should lead to at least a partial rescue of the apoptotic effect mediated by the small molecule compound. Thus, to further examine the specificity of the small molecule compound FN1-5, as well as its inhibitory mechanisms, it was tested whether over-expressing GLI2 protein could attenuate the cell killing effect of FN1-5. In this experiment, the colon cancer cell line SW480 was transfected with either empty pCDNA3 vector or with a Gli2 cDNA expression construct. After selection, the transfected cells were re-plated in 6-well plates at same numbers, and then FN1-5 was added into medium at a final concentration of 50 μM.
To further examine the specificity of the small molecule compound FN1-8, as well as its inhibitory mechanisms, we tested whether over-expressing GLI2 protein could attenuate the cell killing effect of FN1-8. The transfection experiment was performed as described above. After 5 days, apoptosis analysis using flow cytometry was performed to quantify the experiment.

O=C(NCCCCCO)C1C(c2ccccc2)=NN(c2ccccc2)C1c1ccccc1 (stereo not drawn) [FN1-5, N-(5-Hydroxypentyl)-1,3,5-triphenyl-4,5-dihydro-pyrazole-4-carboxyamide]
cell killing [1]: much lesser cell killing effect | cell killing [2]: dramatic cell killing | cell killing in Panc4.21 compared to the three other pancreatic cancer cell lines ([2]; Panc4.21): less | cell killing [3]: No significant cell killing | cell killing effect in normal cells (normal human renal cells): No noticeable cell killing effect | cell killing, Gli2-transfected versus empty vector cells ([4]; 50 μM): kill less cells transfected with Gli2 than those with empty vector

O=C(NCCc1ccc(O)cc1)C1C(c2ccccc2)=NN(c2ccccc2)C1c1ccccc1 (stereo not drawn) [FN1-8, N-(2-(4-Hydroxyphenyl)ethyl)-1,3,5-triphenyl-4,5-dihydro-pyrazole-4-carboxyamide]
cell killing [1]: dramatic cell killing | cell killing [2]: dramatic cell killing | cell killing [3]: dramatic cell killing | cell killing effect in normal cells (normal human renal cells): No noticeable cell killing effect | apoptotic cells ([4]; SW480 transfected with empty vector): 48.1% | apoptotic cells ([4]; SW480 transfected with the Gli2 expression construct): 27.7%
